From PMC7957565 (Molecules, 2021) come the findings set out here.

The term IC50 denotes the midpoint of a concentration-inhibition curve. A lower IC50 goes with higher potency. One may read the inhibition as how much of the control response was suppressed.

In one experiment the target is T1, AChE (from electric eel) (Electrophorus electricus, UniProt O42275).
T1 construct: purchased Sigma-Aldrich
The experiment is described as follows: biochemical. The settings on record: eeAChE; for IC50: mean ± spread; for inhibition at 100 µM: compound at 100 μM, read-out: AChE inhibition rate (%) in 100 μM.

The target of experiment [1] is butyrylcholinesterase (BuChE, from equine serum) (Equus caballus, UniProt P81908). The experiment is described as follows: biochemical. The conditions noted are these: eqBuChE; mean ± spread.
Chain of butyrylcholinesterase (BuChE, from equine serum) (P81908 whole entry): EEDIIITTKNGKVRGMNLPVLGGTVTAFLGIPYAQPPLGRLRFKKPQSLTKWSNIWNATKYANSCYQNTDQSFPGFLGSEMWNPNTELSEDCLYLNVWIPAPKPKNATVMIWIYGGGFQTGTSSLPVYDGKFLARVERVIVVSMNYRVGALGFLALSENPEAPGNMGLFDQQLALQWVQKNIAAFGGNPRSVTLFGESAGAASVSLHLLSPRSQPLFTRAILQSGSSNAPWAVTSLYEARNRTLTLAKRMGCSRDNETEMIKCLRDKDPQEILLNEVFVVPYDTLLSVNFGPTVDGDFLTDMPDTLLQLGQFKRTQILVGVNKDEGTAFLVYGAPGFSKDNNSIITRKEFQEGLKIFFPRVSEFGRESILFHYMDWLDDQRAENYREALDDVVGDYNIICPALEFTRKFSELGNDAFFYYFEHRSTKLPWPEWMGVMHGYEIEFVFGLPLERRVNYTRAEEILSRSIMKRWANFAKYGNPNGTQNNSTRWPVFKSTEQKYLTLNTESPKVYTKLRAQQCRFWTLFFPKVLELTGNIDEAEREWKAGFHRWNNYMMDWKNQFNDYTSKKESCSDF

T1 sequence (O42275 24-633): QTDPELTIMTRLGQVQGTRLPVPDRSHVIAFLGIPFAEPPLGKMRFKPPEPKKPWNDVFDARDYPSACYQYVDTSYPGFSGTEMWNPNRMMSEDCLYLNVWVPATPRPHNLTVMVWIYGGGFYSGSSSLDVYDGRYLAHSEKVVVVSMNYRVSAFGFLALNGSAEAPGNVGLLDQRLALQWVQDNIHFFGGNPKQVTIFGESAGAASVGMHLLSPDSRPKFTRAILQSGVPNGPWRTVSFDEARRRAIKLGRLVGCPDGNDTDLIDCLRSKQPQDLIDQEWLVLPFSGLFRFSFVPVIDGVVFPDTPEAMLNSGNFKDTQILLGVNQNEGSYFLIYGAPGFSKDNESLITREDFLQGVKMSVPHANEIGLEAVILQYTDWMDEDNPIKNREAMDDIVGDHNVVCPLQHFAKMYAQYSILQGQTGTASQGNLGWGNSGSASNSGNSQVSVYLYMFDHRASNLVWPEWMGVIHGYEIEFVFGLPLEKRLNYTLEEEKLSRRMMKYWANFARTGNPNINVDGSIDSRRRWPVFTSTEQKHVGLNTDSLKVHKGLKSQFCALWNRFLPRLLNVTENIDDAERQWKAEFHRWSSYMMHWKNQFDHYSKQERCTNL

On to `Cc1ccccc1CN1CCC(CCNC(=O)/C=C/c2cc3c([nH]c4ccc(C(C)(C)C)cc43)c3c2OC(C)(C)C=C3)CC1` [Compound 6cc, (E)-3-(8-(tert-Butyl)-3,3-dimethyl-3,11-dihydropyrano[3,2-a]carbazol-5-yl)-N-(2-(1-(2-methylbenzyl)piperidin-4-yl)ethyl)acrylamide], for which the IC50 worked out at 14.3 ± 0.36 µM on AChE (from electric eel) and 33.8 ± 0.51 µM in experiment [1].
As for `CC1(C)C=Cc2c(c(/C=C/C(=O)NCCC3CCN(Cc4ccccc4)CC3)cc3c2[nH]c2ccc(C(C)(C)C)cc23)O1` [Compound 6ca, (E)-N-(2-(1-Benzylpiperidin-4-yl)ethyl)-3-(8-(tert-butyl)-3,3-dimethyl-3,11-dihydropyrano[3,2-a]carbazol-5-yl)acrylamide], the IC50 against AChE (from electric eel) turned out to be 9 ± 0.86 µM; in experiment [1], 23.4 ± 0.95 µM.
For `COc1ccc2[nH]c3c4c(c(/C=C/C(=O)NC5CCN(Cc6ccccc6)CC5)cc3c2c1)OC(C)(C)C=C4` [Compound 6ae, (E)-N-(1-Benzylpiperidin-4-yl)-3-(8-methoxy-3,3-dimethyl-3,11-dihydropyrano[3,2-a]carbazol-5-yl)acrylamide], the inhibition at 100 µM on AChE (from electric eel) came to 20.4 ± 7.35%. Also, inhibition in experiment [1] was half-maximal at 69.1 ± 8.51 µM (IC50).
Regarding `CC1(C)C=Cc2c(c(/C=C/C(=O)NCCC3CCN(Cc4ccccc4F)CC3)cc3c2[nH]c2ccc(C(C)(C)C)cc23)O1` [Compound 6cb, (E)-3-(8-(tert-Butyl)-3,3-dimethyl-3,11-dihydropyrano[3,2-a]carbazol-5-yl)-N-(2-(1-(2-fluorobenzyl)piperidin-4-yl)ethyl)acrylamide], the IC50 came out at 10.7 ± 0.2 µM at AChE (from electric eel) and 19.1 ± 2.04 µM in experiment [1].
On to `Cc1ccccc1CN1CCC(CNC(=O)/C=C/c2cc3c([nH]c4ccc(C(C)(C)C)cc43)c3c2OC(C)(C)C=C3)CC1` [Compound 6bc, (E)-3-(8-(tert-Butyl)-3,3-dimethyl-3,11-dihydropyrano[3,2-a]carbazol-5-yl)-N-((1-(2-methylbenzyl)piperidin-4-yl)methyl)acrylamide], for which the IC50 was 4.26 ± 0.22 µM on AChE (from electric eel) and 19 ± 0.94 µM in experiment [1].
On to `COc1ccc2[nH]c3c4c(c(/C=C/C(=O)NCC5CCN(Cc6ccccc6C)CC5)cc3c2c1)OC(C)(C)C=C4` [Compound 6bi, (E)-3-(8-Methoxy-3,3-dimethyl-3,11-dihydropyrano[3,2-a]carbazol-5-yl)-N-((1-(2-methylbenzyl)piperidin-4-yl)methyl)acrylamide], for which the 50% inhibitory concentration (IC50) against AChE (from electric eel) is 58.4 ± 1.79 µM; in experiment [1], 32.8 ± 0.5 µM.
As for `COc1ccc2[nH]c3c4c(c(/C=C/C(=O)NC5CCN(Cc6ccccc6F)CC5)cc3c2c1)OC(C)(C)C=C4` [Compound 6af, (E)-N-(1-(2-Fluorobenzyl)piperidin-4-yl)-3-(8-methoxy-3,3-dimethyl-3,11-dihydropyrano[3,2-a]carbazol-5-yl)acrylamide], the inhibition at 100 µM at AChE (from electric eel) is 34.2 ± 10.7%. This molecule returned an IC50 in experiment [1] of 24.5 ± 1.94 µM.
For `COc1ccc2[nH]c3c4c(c(/C=C/C(=O)NCCC5CCN(Cc6ccccc6Cl)CC5)cc3c2c1)OC(C)(C)C=C4` [Compound 6ch, (E)-N-(2-(1-(2-Chlorobenzyl)piperidin-4-yl)ethyl)-3-(8-methoxy-3,3-dimethyl-3,11-dihydropyrano[3,2-a]carbazol-5-yl)acrylamide], the concentration for half-maximal inhibition (IC50) on AChE (from electric eel) is 24.6 ± 2.1 µM; in experiment [1], 24.2 ± 4.78 µM.
On to `CC1(C)C=Cc2c(c(/C=C/C(=O)NCC3CCN(Cc4ccccc4)CC3)cc3c2[nH]c2ccc(C(C)(C)C)cc23)O1` [Compound 6ba, (E)-N-((1-Benzylpiperidin-4-yl)methyl)-3-(8-(tert-butyl)-3,3-dimethyl-3,11-dihydropyrano[3,2-a]carbazol-5-yl)acrylamide], for which the IC50 on AChE (from electric eel) worked out at 4.62 ± 0.28 µM; in experiment [1], 12.3 ± 0.66 µM.
On the same counts, the results for `COc1ccc2[nH]c3c4c(c(/C=C/C(=O)NCCC5CCN(Cc6ccccc6F)CC5)cc3c2c1)OC(C)(C)C=C4` [Compound 6cf, (E)-N-(2-(1-(2-Fluorobenzyl)piperidin-4-yl)ethyl)-3-(8-methoxy-3,3-dimethyl-3,11-dihydropyrano[3,2-a]carbazol-5-yl)acrylamide] are 54.8 ± 7.96 µM and 18 ± 3.35 µM.
`COc1ccc2[nH]c3c4c(c(/C=C/C(=O)NCC5CCN(Cc6ccccc6F)CC5)cc3c2c1)OC(C)(C)C=C4` [Compound 6bh, (E)-N-((1-(2-Fluorobenzyl)piperidin-4-yl)methyl)-3-(8-methoxy-3,3-dimethyl-3,11-dihydropyrano[3,2-a]carbazol-5-yl)acrylamide]: the concentration for half-maximal inhibition (IC50) against AChE (from electric eel) is 23.6 ± 8.31 µM; in experiment [1], 31.5 ± 3.88 µM.
`COc1ccc2[nH]c3c4c(c(/C=C/C(=O)NCCC5CCN(Cc6ccccc6)CC5)cc3c2c1)OC(C)(C)C=C4` [Compound 6ce, (E)-N-(2-(1-Benzylpiperidin-4-yl)ethyl)-3-(8-methoxy-3,3-dimethyl-3,11-dihydropyrano[3,2-a]carbazol-5-yl)acrylamide]: the IC50 on AChE (from electric eel) is 41.7 ± 1.22 µM; in experiment [1] it was 26.4 ± 1.4 µM.
Regarding `CC1(C)C=Cc2c(c(/C=C/C(=O)NC3CCN(Cc4ccccc4F)CC3)cc3c2[nH]c2ccc(C(C)(C)C)cc23)O1` [Compound 6ab, (E)-3-(8-(tert-Butyl)-3,3-dimethyl-3,11-dihydropyrano[3,2-a]carbazol-5-yl)-N-(1-(2-fluorobenzyl)piperidin-4-yl)acrylamide], the inhibition at 100 µM at AChE (from electric eel) turned out to be 36.16 ± 0.31%. In addition, in experiment [1], the IC50 amounted to 35.9 ± 5.13 µM.
Regarding `CC1(C)C=Cc2c(c(/C=C/C(=O)NC3CCN(Cc4ccccc4Cl)CC3)cc3c2[nH]c2ccc(C(C)(C)C)cc23)O1` [Compound 6ad, (E)-3-(8-(tert-Butyl)-3,3-dimethyl-3,11-dihydropyrano[3,2-a]carbazol-5-yl)-N-(1-(2-chlorobenzyl)piperidin-4-yl)acrylamide], the inhibition at 100 µM at AChE (from electric eel) stood at 42.5 ± 6.12%. Further, 38.8 ± 2.48 µM corresponded to half-maximal inhibition in experiment [1] (IC50).
Regarding `COc1ccc2[nH]c3c4c(c(/C=C/C(=O)NC5CCN(Cc6ccccc6C)CC5)cc3c2c1)OC(C)(C)C=C4` [Compound 6ag, (E)-3-(8-Methoxy-3,3-dimethyl-3,11-dihydropyrano[3,2-a]carbazol-5-yl)-N-(1-(2-methylbenzyl)piperidin-4-yl)acrylamide], the inhibition at 100 µM at AChE (from electric eel) was determined as 36.8 ± 1.25%. For the same molecule, in experiment [1], the IC50 was 26.4 ± 4.51 µM.
On to `COc1ccc2[nH]c3c4c(c(/C=C/C(=O)NCCC5CCN(Cc6ccccc6C)CC5)cc3c2c1)OC(C)(C)C=C4` [Compound 6cg, (E)-3-(8-Methoxy-3,3-dimethyl-3,11-dihydropyrano[3,2-a]carbazol-5-yl)-N-(2-(1-(2-methylbenzyl)piperidin-4-yl)ethyl)acrylamide], for which the 50% inhibitory concentration (IC50) against AChE (from electric eel) was 73 ± 1.93 µM; in experiment [1] it was 26.7 ± 1.76 µM.
On the same counts, the results for `CC1(C)C=Cc2c(c(/C=C/C(=O)NCCC3CCN(Cc4ccccc4Cl)CC3)cc3c2[nH]c2ccc(C(C)(C)C)cc23)O1` [Compound 6cd, (E)-3-(8-(tert-Butyl)-3,3-dimethyl-3,11-dihydropyrano[3,2-a]carbazol-5-yl)-N-(2-(1-(2-chlorobenzyl)piperidin-4-yl)ethyl)acrylamide] are 17 ± 1.51 µM and 17.3 ± 4.82 µM.
`COc1ccc2[nH]c3c4c(c(C=O)cc3c2c1)OC(C)(C)C=C4` [Clau F, Claulansine F, reference compound]: the inhibition at 100 µM on AChE (from electric eel) worked out at 28.2 ± 2.11%. The molecule further yielded an IC50 in experiment [1] of 64.3 ± 7.52 µM.
`CC1(C)C=Cc2c(c(/C=C/C(=O)NC3CCN(Cc4ccccc4)CC3)cc3c2[nH]c2ccc(C(C)(C)C)cc23)O1` [Compound 6aa, (E)-N-(1-Benzylpiperidin-4-yl)-3-(8-(tert-butyl)-3,3-dimethyl-3,11-dihydropyrano[3,2-a]carbazol-5-yl)acrylamide]: the half-maximal inhibitory concentration (IC50) worked out at 51.9 ± 2.24 µM against AChE (from electric eel) and 22.9 ± 1.14 µM in experiment [1].
For the molecule `Cc1ccccc1CN1CCC(NC(=O)/C=C/c2cc3c([nH]c4ccc(C(C)(C)C)cc43)c3c2OC(C)(C)C=C3)CC1` [Compound 6ac, (E)-3-(8-(tert-Butyl)-3,3-dimethyl-3,11-dihydropyrano[3,2-a]carbazol-5-yl)-N-(1-(2-methylbenzyl)piperidin-4-yl)acrylamide], the inhibition at 100 µM on AChE (from electric eel) is 50.9 ± 2.76%. In experiment [1], this molecule registered an IC50 of 34.3 ± 0.69 µM.
For the molecule `COc1ccc2[nH]c3c4c(c(/C=C/C(=O)NC5CCN(Cc6ccccc6Cl)CC5)cc3c2c1)OC(C)(C)C=C4` [Compound 6ah, (E)-N-(1-(2-Chlorobenzyl)piperidin-4-yl)-3-(8-methoxy-3,3-dimethyl-3,11-dihydropyrano[3,2-a]carbazol-5-yl)acrylamide], at AChE (from electric eel), the inhibition at 100 µM was found to be 40 ± 1.4%. In experiment [1], this molecule registered a concentration for half-maximal inhibition (IC50) of 18 ± 2.27 µM.
With `COc1ccc2[nH]c3c4c(c(/C=C/C(=O)NCC5CCN(Cc6ccccc6)CC5)cc3c2c1)OC(C)(C)C=C4` [Compound 6bg, (E)-N-((1-Benzylpiperidin-4-yl)methyl)-3-(8-methoxy-3,3-dimethyl-3,11-dihydropyrano[3,2-a]carbazol-5-yl)acrylamide], the IC50 was 27.7 ± 5.15 µM against AChE (from electric eel) and 74.9 ± 3.21 µM in experiment [1].
On the same counts, the results for `COc1ccc2[nH]c3c4c(c(/C=C/C(=O)NCC5CCN(Cc6ccccc6Cl)CC5)cc3c2c1)OC(C)(C)C=C4` [Compound 6bj, (E)-N-((1-(2-Chlorobenzyl)piperidin-4-yl)methyl)-3-(8-methoxy-3,3-dimethyl-3,11-dihydropyrano[3,2-a]carbazol-5-yl)acrylamide] are 91.1 ± 4.41 µM and 37.6 ± 0.56 µM.
